Patent US7169816B2, “4-bromo or 4-iodo phenylamino benzhydroxamic acid derivatives and their use as MEK inhibitors” (Warner-Lambert Company, priority 1997, dated 2007)
Where a name gives a salt, the structure may show the parent alone.

Each compound was assayed against p45MEK (GST-MEK) (Homo sapiens, UniProt Q02750) (assay: Cascade assay for inhibitors of the MAP kinase pathway (in vitro)).
Assay type: biochemical
Protocol: Incorporation of ^32P into myelin basic protein (MBP) was assayed in the presence of a glutathione S-transferase fusion protein containing p44MAP kinase (GST-MAPK) and a glutathione S-transferase fusion protein containing p45MEK (GST-MEK). The assay solution contained 20 mM HEPES, pH 7.4, 10 mM MgCl2, 1 mM MnCl2, 1 mM EGTA, 50 μM [γ-^32P]ATP, 10 μg GST-MEK, 0.5 μg GST-MAPK and 40 μg MBP in a final volume of 100 μL. […] Compounds were assessed at 10 μM for ability to inhibit incorporation of ^32P.
To ascertain whether compounds were inhibiting GST-MEK or GST MAPK, two additional protocols were employed. In the first protocol, compounds were added to tubes containing GST-MEK, followed by addition of GST-MAPK, MBP and [γ-^32P]ATP. In the second protocol, compounds were added to tubes containing both GST-MEK and GST-MAPK, followed by MBP and [γ-^32P]ATP.

Row | IC50 [nM] | Compound
1 | 728 | C#CC(C)ONC(=O)c1ccc(F)c(F)c1Nc1ccc(Br)cc1C (centres unmarked) [Example 28, 2-(4-Bromo-2-methyl-phenylamino)-3,4-difluoro-N-(1-methyl-prop-2-ynyloxy)-benzamide]
2 | 85 | Cc1cc(I)ccc1Nc1c(C(=O)NOC(C)C)cc(Br)c(F)c1F [Example 49, 5-Bromo-3,4-difluoro-2-(4-iodo-2-methyl-phenylamino)-N-isopropoxy-benzamide]
3 | < 10 | O=C(NOCC1CC1)c1cc(Br)c(F)c(F)c1Nc1ccc(I)cc1Cl [Example 96, 5-Bromo-2-(2-chloro-4-iodo-phenylamino)-N-cyclopropylmethoxy-3,4-difluoro-benzamide]
4 | 374 | Cc1cc(Br)ccc1Nc1c(C(=O)NOCC#Cc2ccccc2)ccc(F)c1F [Example 33, 3,4-Difluoro-2-(4-bromo-2-methyl-phenylamino)-N-(3-phenyl-prop-2-ynyloxy)-benzamide]
5 | 80 | Cc1cc(I)ccc1Nc1cc(F)ccc1C(=O)N(O)C(C)C [Example 78, 4-Fluoro-N-hydroxy-2-(4-iodo-2-methyl-phenylamino)-N-isopropyl-benzamide]
6 | 33 | Cc1cc(I)ccc1Nc1c(C(=O)NOCC(C)N(C)C)cc(Br)c(F)c1F (centres unmarked) [Example 92, 5-Bromo-N-(2-dimethylamino-propoxy)-3,4-difluoro-2-(4-iodo-2-methyl-phenylamino)-benzamide]
7 | 87 | Cc1cc(I)ccc1Nc1c(C(=O)NOC(C)C)ccc(F)c1F [Example 47, 3,4-Difluoro-2-(4-iodo-2-methyl-phenylamino)-N-isopropoxy-benzamide]
8 | 259 | Cc1cc(I)ccc1Nc1cc(F)ccc1C(=O)NOCCOc1ccccc1 [Example 59, 4-Fluoro-2-(4-iodo-2-methyl-phenylamino)-N-(2-phenoxy-ethoxy)-benzamide]
9 | 126 | CCCONC(=O)c1cc(Br)c(F)c(F)c1Nc1ccc(I)cc1C [Example 45, 5-Bromo-3,4-difluoro-2-(4-iodo-2-methyl-phenylamino)-N-propoxy-benzamide]
10 | 47 | Cc1cc(I)ccc1Nc1cc(F)ccc1C(=O)NOCC1CC1 [Example 55, N-Cyclopropylmethoxy-4-fluoro-2-(4-iodo-2-methyl-phenylamino)-benzamide]
11 | 826 | Cc1cc(I)ccc1Nc1cc(F)ccc1C(=O)NOCc1ccccc1 [Example 12, 4-Fluoro-2-(4-iodo-2-methyl-phenylamino)-N-phenylmethoxy-benzamide]
12 | 25 | CCN(CC)CCONC(=O)c1cc(Br)c(F)c(F)c1Nc1ccc(I)cc1C [Example 98, 5-Bromo-N-(2-diethylamino-ethoxy)-3,4-difluoro-(4-iodo-2-methyl-phenylamino)-benzamide]
13 | 40 | CCCONC(=O)c1ccc(F)c(F)c1Nc1ccc(I)cc1C [Example 43, 3,4-Difluoro-2-(4-iodo-2-methyl-phenylamino)-N-propoxy-benzamide]
14 | 14 | Cc1cc(I)ccc1Nc1c(C(=O)NOCC2CC2)ccc(F)c1F [Example 56, N-Cyclopropylmethoxy-3,4-difluoro-2-(4-iodo-2-methyl-phenylamino)-benzamide]
15 | 140 | Cc1cc(I)ccc1Nc1c(C(=O)NOC2CCCC2)ccc(F)c1F [Example 53, N-Cyclopentyloxy-3,4-difluoro-2-(4-iodo-2-methyl-phenylamino)-benzamide]
16 | 31 | Cc1cc(I)ccc1Nc1c(C(=O)NOC2CCCCO2)ccc(F)c1F (centres unmarked) [Example 83, 3,4-Difluoro-2-(4-iodo-2-methyl-phenylamino)-N-(tetrahydro-pyran-2-yloxy)-benzamide]
17 | 17 | Cc1cc(I)ccc1Nc1cc(F)c([N+](=O)[O-])cc1C(=O)NO [Example 81, 4-Fluoro-N-hydroxy-2-(4-iodo-2-methyl-phenylamino)-5-nitro-benzamide]
18 | 42 | Cc1cc(I)ccc1Nc1cc(F)ccc1C(=O)NOCc1ccoc1 [Example 20, 4-Fluoro-N-(furan-3-ylmethoxy)-2-(4-iodo-2-methyl-phenylamino)-benzamide]
19 | 279 | Cc1cc(Br)ccc1Nc1c(C(=O)NOCc2cccs2)ccc(F)c1F [Example 64, 2-(4-Bromo-2-methyl-phenylamino)-3,4-difluoro-N-(thiophen-2-ylmethoxy)-benzamide]
20 | 971 | C#CCCONC(=O)c1ccc(F)c(F)c1Nc1ccc(Br)cc1C [Example 30, 2-(4-Bromo-2-methyl-phenylamino)-N-(but-3-ynyloxy)-3,4-difluoro-benzamide]
21 | 15 | C#CCONC(=O)c1ccc(F)c(F)c1Nc1ccc(I)cc1C [Example 71, 3,4-Difluoro-2-(4-iodo-2-methyl-phenylamino)-N-(prop-2-ynyloxy)-benzamide]
22 | 7130 | Cc1cc(F)ccc1Nc1cc(F)ccc1C(=O)NO [Example 8, 4-Fluoro-N-hydroxy-2-(4-fluoro-2-methyl-phenylamino)-benzamide]
23 | 23 | Cc1cc(I)ccc1Nc1ccc(Cl)cc1C(=O)NO [Example 4, 5-Chloro-N-hydroxy-2-(4-iodo-2-methyl-phenylamino)-benzamide]
24 | 16 | C=C(C)CONC(=O)c1ccc(F)c(F)c1Nc1ccc(I)cc1C [Example 66, 3,4-Difluoro-2-(4-iodo-2-methyl-phenylamino)-N-(2-methyl-allyloxy)-benzamide]
25 | 55 | O=C(NOC1CCCCO1)c1ccc(F)c(F)c1Nc1ccc(I)cc1Cl (centres unmarked) [Example 90, 3,4-Difluoro-2-(2-chloro-4-iodo-phenylamino)-N-(tetrahydro-pyran-2-yloxy)-benzamide]
26 | 15 | Cc1cc(I)ccc1Nc1c(C(=O)NOCCN2CCOCC2)cc(Br)c(F)c1F [Example 97, 5-Bromo-3,4-difluoro-2-(4-iodo-2-methyl-phenylamino)-N-(2-morpholin-4-yl-ethoxy)-benzamide]
27 | 56 | Cc1cc(I)ccc1Nc1c(C(=O)NOCC#Cc2ccccc2F)ccc(F)c1F [Example 36, 3,4-Difluoro-N-[3-(2-fluoro-phenyl)-prop-2-ynyloxy]-2-(4-iodo-2-methyl-phenylamino)-benzamide]
28 | 26 | C#CC(C)ONC(=O)c1ccc(F)c(F)c1Nc1ccc(I)cc1C (centres unmarked) [Example 27, 3,4-Difluoro-2-(4-iodo-2-methyl-phenylamino)-N-(1-methyl-prop-2-ynyloxy)-benzamide]
29 | 137 | Cc1cc(Br)ccc1Nc1c(C(=O)NOCc2ccoc2)ccc(F)c1F [Example 22, 2-(4-Bromo-2-methyl-phenylamino)-3,4-difluoro-N-(furan-3-ylmethoxy)-benzamide]
30 | 35 | CC=CCONC(=O)c1ccc(F)c(F)c1Nc1ccc(I)cc1C [Example 74, N-(But-2-enyloxy)-3,4-difluoro-2-(4-iodo-2-methyl-phenylamino)-benzamide]

Row | Compound | IC50 [nM]
31 | CC=CCONC(=O)c1cc(Br)c(F)c(F)c1Nc1ccc(I)cc1C [Example 24, 5-Bromo-N-(but-2-enyloxy)-3,4-difluoro-2-(4-iodo-2-methyl-phenylamino)-benzamide] | 21
32 | CC=CCONC(=O)c1ccc(F)c(F)c1Nc1ccc(Br)cc1C [Example 70, 2-(4-Bromo-2-methyl-phenylamino)-N-(but-2-enyloxy)-3,4-difluoro-benzamide] | 224
33 | CN(C)CCONC(=O)c1cc(Br)c(F)c(F)c1Nc1ccc(I)cc1Cl [Example 91, 5-Bromo-2-(2-chloro-4-iodo-phenylamino)-N-(2-dimethylamino-ethoxy)-3,4-difluoro-benzamide monohydrochloride salt] | 20
34 | 4-Fluoro-2-(4-iodo-2-methyl-phenylamino)-N-phenylmethoxy-benzamide [Example 77] | 280
35 | Cc1cc(I)ccc1Nc1ccc(Cl)cc1C(=O)NOC1CCCCO1 (centres unmarked) [Example 6, 5-Chloro-2-(4-iodo-2-methyl-phenylamino)-N-(terahydropyran-2-yloxy)benzamide] | 345
